PubChem BioAssay (NCI)
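Interpolation was linear, between the two tested concentrations surrounding the appropriate level; five concentrations were tested over 48 hours in 96-well plates. The concentration for full growth arrest is given as TGI.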

Assays:
Assay in all cases: NCI anticancer screen, dose series, 48 h
RXF-631 renal = test system: RXF-631 renal
RXF 393 renal = test system: RXF 393 renal
SW-620 colon = test system: SW-620 colon
SF-268 CNS = test system: SF-268 CNS
SK-MEL-5 melanoma = test system: SK-MEL-5 melanoma
OVCAR-8 ovarian = test system: OVCAR-8 ovarian
KM12 colon = test system: KM12 colon
MALME-3M melanoma = test system: MALME-3M melanoma
SNB-75 CNS = test system: SNB-75 CNS
OVCAR-4 ovarian = test system: OVCAR-4 ovarian
LXFL 529 NSCLC = test system: LXFL 529 NSCLC
HCC-2998 colon = test system: HCC-2998 colon
A549 NSCLC = test system: A549 NSCLC
HOP-92 NSCLC = test system: HOP-92 NSCLC
U251 CNS = test system: U251 CNS
SK-MEL-28 melanoma = test system: SK-MEL-28 melanoma
SNB-19 CNS = test system: SNB-19 CNS
NCI-H226 lung = test system: NCI-H226 lung
NCI-H23 lung = test system: NCI-H23 lung
SK-OV-3 ovarian = test system: SK-OV-3 ovarian
HOP-18 NSCLC = test system: HOP-18 NSCLC
SR leukemia = test system: SR leukemia
HCT-116 colon = test system: HCT-116 colon
NCI-H460 lung = test system: NCI-H460 lung
HOP-62 NSCLC = test system: HOP-62 NSCLC
ACHN renal = test system: ACHN renal
NCI-H522 lung = test system: NCI-H522 lung
SK-MEL-2 melanoma = test system: SK-MEL-2 melanoma
MOLT-4 leukemia = test system: MOLT-4 leukemia
DLD-1 colon = test system: DLD-1 colon
CAKI-1 renal = test system: CAKI-1 renal
SF-295 CNS = test system: SF-295 CNS
SF-539 CNS = test system: SF-539 CNS
UACC-257 melanoma = test system: UACC-257 melanoma
HCT-15 colon = test system: HCT-15 colon
COLO 205 colon = test system: COLO 205 colon
M14 melanoma = test system: M14 melanoma
OVCAR-3 ovarian = test system: OVCAR-3 ovarian
K-562 leukemia = test system: K-562 leukemia
DMS 273 small cell lung = test system: DMS 273 small cell lung
UO-31 renal = test system: UO-31 renal
HL-60(TB) leukemia = test system: HL-60(TB) leukemia
IGROV1 ovarian = test system: IGROV1 ovarian
M19-MEL melanoma = test system: M19-MEL melanoma
UACC-62 melanoma = test system: UACC-62 melanoma
RPMI-8226 leukemia = test system: RPMI-8226 leukemia
CCRF-CEM leukemia = test system: CCRF-CEM leukemia
786-0 renal = test system: 786-0 renal
SN12C renal = test system: SN12C renal
KM20L2 colon = test system: KM20L2 colon
OVCAR-5 ovarian = test system: OVCAR-5 ovarian
EKVX NSCLC = test system: EKVX NSCLC
SNB-78 CNS = test system: SNB-78 CNS
TK-10 renal = test system: TK-10 renal
HT29 colon = test system: HT29 colon
DMS 114 small cell lung = test system: DMS 114 small cell lung
A498 renal = test system: A498 renal

Measured: TGI

CC[C@@H]1OC2(C)CC(S(=O)(=O)c3ccccc3O)CC1O2 (some centres not stated)
not listed: SNB-78 CNS | TK-10 renal | HT29 colon | DMS 114 small cell lung | A498 renal
> 100 µM: all other assays above

CCN(CC)CSc1nc2ccccc2o1
not listed: SW-620 colon | SF-268 CNS | SK-MEL-5 melanoma | MALME-3M melanoma | SNB-75 CNS | OVCAR-4 ovarian | LXFL 529 NSCLC | HCC-2998 colon | NCI-H226 lung | HOP-18 NSCLC | SK-MEL-2 melanoma | DLD-1 colon | CAKI-1 renal | SF-539 CNS | HCT-15 colon | COLO 205 colon | OVCAR-3 ovarian | K-562 leukemia | RPMI-8226 leukemia | 786-0 renal | SN12C renal | KM20L2 colon
> 100 µM: all other assays above
